Measurements from patent publication US8404858B2, “Agent for regeneration and/or protection of nerves” (Ono Pharmaceutical Co., Ltd., priority 2005, dated 2013).

Assays:
rat EP2 receptor = target: T1, rat EP2 receptor (Rattus norvegicus, UniProt Q62928); test: Measurement of EP2 agonist activity (intracellular cyclic AMP concentration, cAMP assay); format: cell-based; details: rEP2-CHO cell, maximum = PGE2 (1 μmol/l)
T1 construct: expressed in transfected cells; host or cells: CHO cells (rEP2-CHO)
T1 sequence (Q62928 whole entry): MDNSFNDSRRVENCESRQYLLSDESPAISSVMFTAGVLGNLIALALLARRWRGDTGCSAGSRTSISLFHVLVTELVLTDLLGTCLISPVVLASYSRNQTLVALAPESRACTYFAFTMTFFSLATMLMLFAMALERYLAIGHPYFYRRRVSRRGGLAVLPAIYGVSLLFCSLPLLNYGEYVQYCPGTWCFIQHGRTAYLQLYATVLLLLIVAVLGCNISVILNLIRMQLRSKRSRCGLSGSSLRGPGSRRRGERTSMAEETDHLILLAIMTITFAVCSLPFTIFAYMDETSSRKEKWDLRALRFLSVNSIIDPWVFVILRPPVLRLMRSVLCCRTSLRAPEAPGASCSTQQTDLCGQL
Description: (1-1) Measurement of EP2 Agonist Activity (Measurement of Intracellular Cyclic AMP (cAMP) Concentration (cAMP Assay))
(§1) A rat EP2 receptor forced expression cell (rEP2-CHO cell) was incubated in an incubator (5% CO2) of 37° C. using Minimum Essential Medium Eagle (Sigma, M4526) to which 10% fetal bovine serum (FBS, JRH) and 1/100 total volume of Penicillin Streptomycin Glutamine (GIBCO, 10378-016) had been added. The cells which reached confluent were exfoliated using trypsin and suspended in a medium (MEM medium containing 10% FBS) to a density of 2.0×10^5 cells per ml. The thus prepared suspension was seeded into a 24 well plate to be 1.0×10^5 cells per well portions and incubated for 48 hours. […]
The frozen sample was thawed and transferred to a micro centrifugation tube to be centrifuged (15,000 rpm, 4° C., 3 minutes). […] Using the upper layer as a sample, cAMP concentration was measured by a cAMP EIA system (cAMP Enzyme Immunoassay System, Amersham Biosciences).
Activity strengths of respective compounds were compared by calculating their EC50 values. The EC50 value was calculated by regarding changed amount of the cAMP concentration when PGE2 (1 μmol/l) was added instead of each compound as the maximum changed amount, and defining the value which gives half of the changed amount as the concentration of each compound.

rat EP3 receptor = target: T2, rat EP3 receptor (Rattus norvegicus, UniProt P34980); test: Measurement of EP3 agonist activity (intracellular calcium concentration real time imaging, Ca2+ assay); format: cell-based; details: rEP3-CHO cell, maximum = PGE2 (100 nmol/L)
T2 construct: expressed in transfected cells; host or cells: CHO cells (rEP3-CHO)
T2 sequence (P34980 1-365): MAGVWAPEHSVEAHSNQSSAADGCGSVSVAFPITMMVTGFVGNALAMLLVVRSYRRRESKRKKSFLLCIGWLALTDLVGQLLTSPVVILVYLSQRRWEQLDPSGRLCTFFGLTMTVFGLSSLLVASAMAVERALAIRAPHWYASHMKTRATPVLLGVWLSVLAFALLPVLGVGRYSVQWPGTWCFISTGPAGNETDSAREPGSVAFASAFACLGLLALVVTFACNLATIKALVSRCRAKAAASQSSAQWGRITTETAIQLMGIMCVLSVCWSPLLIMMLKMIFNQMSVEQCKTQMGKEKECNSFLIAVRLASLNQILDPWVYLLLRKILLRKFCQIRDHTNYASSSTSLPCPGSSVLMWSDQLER
Description: (1-2) Measurement of EP3 Agonist Activity (Intracellular Calcium Concentration Real Time Imaging (Ca^2+ Assay))
as §1, with “EP3” for “EP2”, “(rEP3-CHO” for “(rEP2-CHO”, “1/100 of” for “1/100”, “1.0×10^5” for “2.0×10^5”, “ml.” for “ml. The thus prepared suspension was seeded into a 24 well plate to be 1.0×10^5 cells per well portions and incubated for 48 hours.”
After the incubation, the culture fluid was removed from each well of the plate and a Fura2 loading buffer (10% FBS-containing MEM medium supplemented with Fura2-AM (5 μmol/L), HEPES (10 mmol/L), probenecid (2.5 mmol/L) and indometacin (20 μmol/L)) was added thereto, followed by incubating in an incubator (5% CO2) of 37° C. […] Measurement of the fluorescence intensity was continuously carried out for 3 minutes after addition of the compound.
Activity intensity of each compound was compared by calculating their EC50 values. The EC50 value was calculated by regarding mean of the changed amount of calcium concentration when PGE2 (100 nmol/L) was added instead of each compound as the maximum changed amount, and defining the value which gives half of the changed amount as the concentration of each compound. […]

rat = test: Measurement of the cauda equina blood flow and the blood pressure; format: in vivo; details: urethane-anesthetized rat, continuous infusion through caudal vein for 30 minutes
Description: (3) The Measurement of the Cauda Equina Blood Flow and the Blood Pressure
1.5 g/kg of urethane was administered intraperitoneally to the rat to be anesthetized, and the catheter (for measurement of blood pressure and ventricular rate) was placed in left carotid artery in supine position. The rat was reversed to prone position and the lumbar part was incised in the median line. The laminectomy was given to the fifth lumbar vertebra and the spinal cord (cauda equina) was exposed. The cauda equina blood flow was measured by the laser-Doppler flowmetry (OMEGAFLD FLO-NI and ADVANCE LASER FLOWMETER ALF21N, OMEGA WAVE Inc.) through a noncontact probe (ST-N type, OMEGA WAVE Inc.) and recorded with LINEARCORDER (Graphtech). The systemic blood pressure and the ventricular rate were measured from a left carotid artery with amplifier for the pressure measurement (GOULD) through a pressure transducer and recorded with LINEARCORDER (Graphtech). After confirming each parameter of blood pressure, ventricular rate and blood flow was stabilized, the test compound was administrated by continuous infusion through the winged needle placed in caudal vein for 30 minutes. It observed until 30 minutes after the administration and the increase rate of the cauda equina blood flow was calculated.
The increase rate of the cauda equina blood flow (%)=(B−A)/A×100 […]

cauda equina nerve = test: Measurement of cauda equina nerve repair acceleration activity (rat cauda equina nerve compression gait disturbance model); format: in vivo; details: intravenous continuous administration 2 hours×twice/day, 2 weeks, in comparison with the physiological saline administration group
Description: (2) Measurement of Cauda Equina Nerve Repair Acceleration Activity
A rat cauda equina nerve compression gait disturbance model was prepared by the method of Takenobu et al. (J. Neurosci. Methods, 104 (2), 191-198, 2002). Namely, a rat was anesthetized with pentobarbital sodium and, after shaving its dorsal region, fixed at abdominal position. After disinfection of the dorsal region with chlorhexidine gluconate (5% hibitane liquid; Sumitomo Pharmaceuticals), the waist was median-incised to expose the spinal column. After excision of the fifth lumbar gemmule, a silicon rubber of 1×4×1.25 mm (height×length×width) was inserted into the fourth lumbar and sixth lumbar spinal canals from a small hole on the vertebral arch bored by a mini drill. For the purpose of avoiding infections, benzylpenicillin potassium (Crystalline Penicillin G Potassium Meiji; Meiji Seika Kaisha, Ltd.) was added dropwise to the incised part and intramuscularly injected into the thigh parts. The muscle and skin of the incised part were stitched with a surgical suture, and Iodine Tincture was applied to the stitched part. Animals of the sham operation group were prepared in accordance with the aforementioned method, but the insertion of silicon rubber was not carried out. […]

SMILES	EC50 (rat EP2 receptor) [nM]	EC50 (rat EP3 receptor) [nM]	decrease of the blood pressure (rat; left carotid artery) [mmHg]	increase rate of the cauda equina blood flow (rat; observed until 30 minutes after) [%]	appearance rate of regeneration nerve fascicles (cauda equina nerve)
C[C@@](O)(C/C=C/[C@H]1CCC(=O)[C@@H]1CCSc1nc(C(=O)O)cs1)CC1CCCCC1 [compound 17, 2-[(2-{(1R,2R)-2-[(1E,4S)-5-cyclohexyl-4-hydroxy-4-methyl-1-penten-1-yl]-5-oxocyclopentyl}ethyl)thio]-1,3-thiazole-4-carboxylic acid]	11	31	5	33	
O=C(O)c1csc(SCCN2C(=O)OC[C@@H]2/C=C/[C@@H](O)C2(CCCCF)CCC2)n1 [compound A, 2-{[2-((4S)-4-{(1E,3R)-3-[1-(4-fluorobutyl)cyclobutyl]-3-hydroxy-1-propenyl}-2-oxo-1,3-oxazolidin-3-yl)ethyl]sulfanyl}-1,3-thiazole-4-carboxylic acid]	16	99			significantly high appearance rate of regeneration nerve fascicles
